What was measured:
MCF7 [1] = assay: Antiproliferative activity against Doxorubicin-resistant human MCF7 cells assessed as reduction in cell proliferation incubated for 48 hrs by MTT assay; type: functional, cell-based; details: MCF7, 48 h
MCF-10A = assay: Antiproliferative activity against human MCF-10A cells assessed as reduction in cell proliferation incubated for 48 hrs by MTT assay; type: functional, cell-based
MDA-MB-231 [2] = assay: Antiproliferative activity against human MDA-MB-231 cells assessed as reduction in cell proliferation incubated for 48 hrs by MTT assay; type: functional, cell-based; details: MDA-MB-231, 48 h
MCF7 [3] = assay: Antiproliferative activity against human MCF7 cells assessed as reduction in cell proliferation incubated for 48 hrs by MTT assay; type: functional, cell-based; details: MCF7, 48 h
[4] = Selectivity index, ratio of IC50 for antiproliferative activity against human MCF-10A cells to IC50 for antiproliferative activity against human MCF7 cells by MTT assay; type: toxicity, cell-based; details: MCF-10A cells versus MCF7 cells, read-out: Selectivity Index
MDA-MB-231 [5] = assay: Antiproliferative activity against human MDA-MB-231 cells assessed as inhibition of cell growth incubated for 72 hrs by Celltiter Glo assay; type: functional, cell-based; details: MDA-MB-231, 72 h
[6] = biological target: T1, Prostaglandin G/H synthase 2 (Homo sapiens) (UniProt P35354); assay: Inhibition of COX-2 (unknown origin) at 50 uM by fluorescence based method relative to control
T1 sequence (whole entry): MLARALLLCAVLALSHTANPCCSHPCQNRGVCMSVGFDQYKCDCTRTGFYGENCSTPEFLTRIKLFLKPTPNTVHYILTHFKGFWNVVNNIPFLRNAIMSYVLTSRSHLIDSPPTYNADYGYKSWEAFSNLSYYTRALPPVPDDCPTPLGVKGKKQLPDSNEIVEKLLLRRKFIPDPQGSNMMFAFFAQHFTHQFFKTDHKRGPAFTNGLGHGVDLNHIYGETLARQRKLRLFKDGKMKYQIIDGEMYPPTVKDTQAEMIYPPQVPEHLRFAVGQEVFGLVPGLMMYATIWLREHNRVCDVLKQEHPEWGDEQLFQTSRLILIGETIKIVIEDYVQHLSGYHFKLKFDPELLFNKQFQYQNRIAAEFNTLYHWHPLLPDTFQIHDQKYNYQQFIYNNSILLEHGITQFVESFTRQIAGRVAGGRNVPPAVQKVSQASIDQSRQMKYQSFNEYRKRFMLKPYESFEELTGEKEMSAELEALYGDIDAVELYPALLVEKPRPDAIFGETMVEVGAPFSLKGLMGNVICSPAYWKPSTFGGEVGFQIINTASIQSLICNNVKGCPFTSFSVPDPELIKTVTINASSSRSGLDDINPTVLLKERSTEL

HEK293 [7] = assay: Antiproliferative activity against human HEK293 cells assessed as inhibition of cell growth measured after 24 hrs by MTT assay; type: functional, cell-based; details: HEK293, 24 h
MDA-MB-231 [8] = assay: Antiproliferative activity against human MDA-MB-231 cells assessed as inhibition of cell growth by MTT assay; type: functional, cell-based
MDA-MB-231 [9] = assay: Antiproliferative activity against human MDA-MB-231 cells assessed as reduction in cell viability measured after 24 hrs by MTT assay; type: functional, cell-based; details: MDA-MB-231, 24 h
MDA-MB-231 [10] = assay: Antiproliferative activity against human MDA-MB-231 cells assessed as inhibition of cell proliferation incubated for 24 hrs by MTT assay; type: functional, cell-based; details: MDA-MB-231, 24 h
MCF7 [11] = assay: Antiproliferative activity against human MCF7 cells assessed as inhibition of cell proliferation incubated for 24 hrs by MTT assay; type: functional, cell-based; details: MCF7, 24 h
MDA-MB-231 [12] = assay: Antiproliferative activity against human MDA-MB-231 cells assessed as reduction in cell viability measured after 48 hrs by MTT assay; type: functional, cell-based; details: MDA-MB-231, 48 h
T47D = assay: Antiproliferative activity against human T47D cells assessed as reduction in cell viability measured after 48 hrs by MTT assay; type: functional, cell-based
C-33-A = assay: Antiproliferative activity against human C-33-A cells assessed as reduction in cell viability measured after 48 hrs by MTT assay; type: functional, cell-based
MCF7 [13] = assay: Antiproliferative activity against human MCF7 cells assessed as reduction in cell viability measured after 48 hrs by MTT assay; type: functional, cell-based; details: MCF7, 48 h
MDA-MB-361 = assay: Antiproliferative activity against human MDA-MB-361 cells assessed as reduction in cell viability measured after 48 hrs by MTT assay; type: functional, cell-based; details: MDA-MB-361, 48 h
MCF7 [14] = assay: Antiproliferative activity against human MCF7 cells assessed as cell growth inhibition measured after 24 hrs by MTT assay; type: functional, cell-based; details: MCF7, 24 h
HEK293 [15] = assay: Antiproliferative activity against human HEK293 cells assessed as inhibition of cell proliferation measured after 24 hrs by MTT assay; type: functional, cell-based; details: HEK293, 24 h
MCF7 [16] = assay: Antiproliferative activity against human MCF7 cells assessed as reduction in cell viability measured after 24 hrs by MTT assay; type: functional, cell-based; details: MCF7, 24 h
MCF7 [17] = assay: Antiproliferative activity against human MCF7 cells assessed as reduction in cell viability; type: functional, cell-based

CCO/N=C1/C(=O)N(CCCOC2O[C@@H]3O[C@@]4(C)CC[C@H]5[C@H](C)CC[C@@H]([C@H]2C)[C@@]35OO4)c2ccc(F)cc21 (stereo partly drawn)
IC50 (MCF7 [1]): 21.7 µM
IC50 (MCF-10A): > 100 µM
IC50 (MDA-MB-231 [2]): 23.9 µM
IC50 (MCF7 [3]): 20.7 µM
selectivity ratio [4]: > 1.3

OC[C@H]1O[C@@H](Cc2cc(-c3c[nH]c4ccccc34)on2)[C@H](O)[C@@H](O)[C@@H]1O
IC50 (MDA-MB-231 [5]): 35.5 µM
inhibition [6]: 95%

Cc1ncc([N+](=O)[O-])n1Cc1cn(CCCCN2C(=O)C(=O)c3cc(Cl)ccc32)nn1
IC50 (HEK293 [7]): 12.1 µM

O=C1C(=O)N(CCn2cc(COCCOc3ccc(/C(=C(/CCCl)c4ccccc4)c4ccccc4)cc3)nn2)c2c(Br)cc(Br)cc21
IC50 (MDA-MB-231 [8]): 48.5 µM

CCOC(=O)[C@H]1Cc2c([nH]c3ccccc23)CN1Cc1cn(CCCCCOc2ccc(C(=O)/C=C/c3cc(OC)c(OC)c(OC)c3)cc2)nn1
IC50 (MDA-MB-231 [5]): 22.3 µM
IC50 (MDA-MB-231 [9]): 22 µM

CCOC(=O)[C@H]1Cc2c([nH]c3ccccc23)CN1Cc1cn(CCCN2C(=O)C(=O)c3ccccc32)nn1
IC50 (MDA-MB-231 [10]): > 100 µM
IC50 (MCF7 [11]): 37.4 µM

C[C@H]1[C@@H](CC(=O)OC[C@H]2C[C@H]3[C@@H]4CCc5cc(OCc6ccccc6)ccc5[C@H]4CC[C@]3(C)[C@H]2O)OC2O[C@]3(C)CC[C@H]4[C@H](C)CC[C@@H]1[C@@]24OO3 (stereo partly drawn)
EC50 (MDA-MB-231 [12]): 860 nM
EC50 (T47D): 930 nM
EC50 (C-33-A): 150 nM
EC50 (MCF7 [13]): 450 nM
EC50 (MDA-MB-361): 180 nM

COc1cccc(OC)c1C1CC(c2ccc(OCc3cn(CCCN4C(=O)c5cccc6cccc(c56)C4=O)nn3)cc2)=NN1C(C)=O (stereo not drawn)
IC50 (MCF7 [14]): 62.2 µM
IC50 (HEK293 [15]): > 100 µM
IC50 (MCF7 [16]): 62.2 µM

COc1ccc2c3c([nH]c2c1)[C@]12CC(C)(C)[C@@]4(C(=O)N1CC3)c1[nH]c3cc(OC)ccc3c1CCN24
IC50 (MCF7 [11]): 38.5 µM

CCOC(=O)[C@H]1Cc2c([nH]c3ccccc23)CN1Cc1cn(CCCOc2ccc(C(=O)/C=C/c3ccc(F)cc3)cc2)nn1
IC50 (MCF7 [17]): 10.3 µM
